Our source for the IC50 values is patent US20100317621A1, “BETA-LACTAMASE INHIBITORS” (priority 2007, published 2010).

Usually IC50 stands for the concentration needed to halve the response being measured.

Counter-ions that a name gives are not always drawn. Like-named read-outs stand apart in the source and are kept apart here. Bounds are passed on as bounds.

Holding throughout (test): biochemical
One test concerns the target T1, SHV-5 β-lactamase (Klebsiella pneumoniae, UniProt P0A3M1).
T1 construct: The β-lactamases were extracted by four cycles of freezing and thawing followed by centrifugation; endogenous in cells; host or cells: Escherichia coli cells containing SHV-5 (crude freeze-thaw extract)
It is filed as biochemical, Escherichia coli. On the procedure:
(§1) Isolation of β-lactamases. Crude β-lactamase extracts were prepared from 20 ml overnight cultures with shaking. Escherichia coli cells containing SHV-5 or CTXM-15 and Enterobacter cloacae cells containing P99 were further diluted 10-fold and grown to mid-log phase (OD at 600 nm, 0.5-0.8) in Mueller-Hinton II (MH-II) broth at 37° C. The cells were pelleted at 5000 g, washed and resuspended in 2 mL PBS pH 7.0. The β-lactamases were extracted by four cycles of freezing and thawing followed by centrifugation. β-lactamase activity in the extracts was measured with the chromogenic cephalosporin nitrocefin. The amount of protein in each β-lactamase preparation was determined by the bicinchoninic acid (BCA) assay.
(§2) β-lactamase Inhibition. To determine the level of inhibition of β-lactamase enzymes, compounds were diluted in PBS at pH 7.0 to yield concentrations between 100 and 0.005 μM in microtiter plates. An equal volume of diluted enzyme stock was added, and the plates were incubated at 37° C. for 10 min. Nitrocefin solution was then dispensed as substrate into each well at a final concentration of 100 μM, and the plates were immediately read with the kinetic program at 486 nm for 10 min on the SPECTRAMAX® Plus^384 (high-throughput microplate spectrophotometer; Molecular Devices Corp., Sunnyvale, Calif.). Maximum rates of metabolism were then compared to those in control wells (without inhibitors), and percentages of enzyme inhibition were calculated for each concentration of inhibitor. The concentration of inhibitor needed to reduce the initial rate of hydrolysis of substrate by 50% (IC50) was calculated as the residual activity of β-lactamase at 486 nm using the SoftMax Pro 5.0 software (Molecular Devices Corp.).

A further test deals with T2, CTXM-15 β-lactamase (Escherichia coli, UniProt Q9EXV5).
T2 construct: The β-lactamases were extracted by four cycles of freezing and thawing followed by centrifugation; endogenous in cells; host or cells: Escherichia coli cells containing CTXM-15 (crude freeze-thaw extract)
It is filed as biochemical. The conditions noted are these: crude enzyme extract, 10 min preincubation at 37° C., nitrocefin 100 μM, PBS pH 7.0; read-out: CTXM-15 IC50 Range. Here is the method: as §1, §2

For the next test, the target named is T3, P99 AmpC β-lactamase (Enterobacter cloacae, UniProt P05364).
T3 construct: The β-lactamases were extracted by four cycles of freezing and thawing followed by centrifugation; endogenous in cells; host or cells: Enterobacter cloacae cells containing P99 (crude freeze-thaw extract)
It is filed as biochemical. Here is the method:
as §1, §2

The mark [1] stands for this setting: crude enzyme extract, 10 min preincubation at 37° C., nitrocefin 100 μM, PBS pH 7.0, read-out: SHV-5 IC50 Range.
The mark [2] stands for this setting: crude enzyme extract, 10 min preincubation at 37° C., nitrocefin 100 μM, PBS pH 7.0, read-out: P99 AmpC IC50 Range.

T2 sequence (Q9EXV5 29-291): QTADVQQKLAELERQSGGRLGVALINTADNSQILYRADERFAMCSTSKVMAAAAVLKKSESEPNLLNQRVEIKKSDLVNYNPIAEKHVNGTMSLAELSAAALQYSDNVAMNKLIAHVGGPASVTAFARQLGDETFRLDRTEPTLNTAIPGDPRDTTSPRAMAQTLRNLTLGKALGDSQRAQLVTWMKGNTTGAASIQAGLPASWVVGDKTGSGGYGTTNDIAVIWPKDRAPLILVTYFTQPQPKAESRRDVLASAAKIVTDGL
T3 sequence (P05364 21-381): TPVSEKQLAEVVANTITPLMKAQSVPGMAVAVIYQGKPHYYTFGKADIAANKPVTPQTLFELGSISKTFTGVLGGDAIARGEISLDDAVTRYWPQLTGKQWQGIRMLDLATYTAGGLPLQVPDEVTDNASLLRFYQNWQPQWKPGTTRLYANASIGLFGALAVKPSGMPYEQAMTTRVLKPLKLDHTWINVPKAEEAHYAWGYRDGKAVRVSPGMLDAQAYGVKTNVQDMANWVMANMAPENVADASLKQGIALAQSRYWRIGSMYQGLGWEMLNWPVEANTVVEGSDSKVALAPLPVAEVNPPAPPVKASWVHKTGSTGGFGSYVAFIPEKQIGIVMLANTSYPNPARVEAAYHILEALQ
T1 sequence (P0A3M1 22-286): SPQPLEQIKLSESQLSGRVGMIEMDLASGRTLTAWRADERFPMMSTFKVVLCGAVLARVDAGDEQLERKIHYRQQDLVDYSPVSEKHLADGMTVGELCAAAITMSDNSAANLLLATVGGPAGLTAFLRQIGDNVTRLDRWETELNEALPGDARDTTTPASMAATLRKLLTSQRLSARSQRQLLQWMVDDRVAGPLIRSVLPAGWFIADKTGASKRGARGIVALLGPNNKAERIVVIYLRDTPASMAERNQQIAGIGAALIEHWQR

Consider `O=C(Cc1cccc(C(F)(F)F)c1)N[C@@H](Cc1cccc(C(=O)O)c1)B(O)O` [Example 8, (1R)-1-(3-Trifluoromethylphenylacetylamino)-2-(3-carboxyphenyl)ethyl-1-boronic acid], for which the 50% inhibitory concentration (IC50) at SHV-5 β-lactamase (setting [1]) was 100 to 1000 nM; at CTXM-15 β-lactamase, 100 to 1000 nM; at P99 AmpC β-lactamase (setting [2]), > 1000 nM.
Turning to `O=C(Cc1ccc(Cl)cc1)N[C@@H](Cc1cccc(C(=O)O)c1)B(O)O` [Example 19, (1R)-1-(4-Chlorophenylacetylamino)-2-(3-carboxyphenyl)ethyl-1-boronic acid], the IC50 was < 100 nM on SHV-5 β-lactamase (setting [1]), < 100 nM at CTXM-15 β-lactamase and 100 to 1000 nM at P99 AmpC β-lactamase (setting [2]).
Regarding `O=C(Cc1ccc(Br)cc1)N[C@@H](Cc1cccc(C(=O)O)c1)B(O)O` [Example 16, (1R)-1-(4-Bromophenylacetylamino)-2-(3-carboxyphenyl)ethyl-1-boronic acid], the IC50 on SHV-5 β-lactamase (setting [1]) is 100 to 1000 nM; on P99 AmpC β-lactamase (setting [2]), > 1000 nM.
In the same order, the values of `O=C(CC1CCCCC1)N[C@@H](Cc1cccc(C(=O)O)c1)B(O)O` [Example 5, (1R)-1-(Cyclohexylacetylamino)-2-(3-carboxyphenyl)ethyl-1-boronic acid] are > 1000 nM and > 1000 nM.
Take `O=C(CCC(=NO)c1cccs1)N[C@@H](Cc1cccc(C(=O)O)c1)B(O)O` [Example 37, (1R)-1-(4-Hydroxyimino-4-thiophen-2-yl-butyrylamino)-2-(3-carboxyphenyl)ethyl-1-boronic acid]: the IC50 was > 1000 nM on SHV-5 β-lactamase (setting [1]), 100 to 1000 nM at CTXM-15 β-lactamase and 100 to 1000 nM on P99 AmpC β-lactamase (setting [2]).
With `O=C(O)COc1cccc(CC(=O)N[C@@H](Cc2cccc(C(=O)O)c2)B(O)O)c1` [Example 27, (1R)-1-(2-(3-carboxymethoxy)phenylacetylamino)-2-(3-carboxyphenyl)ethyl-1-boronic acid], the figures for the half-inhibitory concentration (IC50) on SHV-5 β-lactamase (setting [1]), on CTXM-15 β-lactamase and at P99 AmpC β-lactamase (setting [2]) were < 100 nM, 100 to 1000 nM and 100 to 1000 nM, respectively.
Turning to `Cn1c(CC(=O)N[C@@H](Cc2cccc(C(=O)O)c2)B(O)O)cc2ccccc21` [Example 14], the IC50 was < 100 nM at SHV-5 β-lactamase (setting [1]), 100 to 1000 nM at CTXM-15 β-lactamase and 100 to 1000 nM at P99 AmpC β-lactamase (setting [2]).
For `NCCCOc1cccc(CC(=O)N[C@@H](Cc2cccc(C(=O)O)c2)B(O)O)c1` [Example 31, (1R)-1-{2-[3-(3-Amino-propyloxy)-phenyl]-acetylamino}-2-(3-carboxyphenyl)ethyl-1-boronic acid hydrochloride], the IC50 at SHV-5 β-lactamase (setting [1]), at CTXM-15 β-lactamase and at P99 AmpC β-lactamase (setting [2]) was 100 to 1000 nM throughout.
Take `O=C(Cc1cccc(Cl)c1)N[C@@H](Cc1cccc(C(=O)O)c1)B(O)O` [Example 3, (1R)-1-(3-Chlorophenylacetylamino)-2-(3-carboxyphenyl)ethyl-1-boronic acid]: the IC50 on SHV-5 β-lactamase (setting [1]) was < 100 nM; at CTXM-15 β-lactamase, < 100 nM; at P99 AmpC β-lactamase (setting [2]), 100 to 1000 nM.
As for `COc1ccc(OC)c(CC(=O)N[C@@H](Cc2cccc(C(=O)O)c2)B(O)O)c1` [Example 4, (1R)-1-(2,5-Dimethoxyphenylacetylamino)-2-(3-carboxyphenyl)ethyl-1-boronic acid], the results for the IC50 at SHV-5 β-lactamase (setting [1]) and at P99 AmpC β-lactamase (setting [2]) were > 1000 nM and 100 to 1000 nM, respectively.
In the same order, the values of `O=C(Cc1cc(F)ccc1F)N[C@@H](Cc1cccc(C(=O)O)c1)B(O)O` [Example 6, (1R)-1-(2,5-Difluorophenylacetylamino)-2-(3-carboxyphenyl)ethyl-1-boronic acid] are < 100 nM and 100 to 1000 nM.
In the same order, the values of `O=C(Cc1cccc(Br)c1)N[C@@H](Cc1cccc(C(=O)O)c1)B(O)O` [Example 7, (1R)-1-(3-Bromophenylacetylamino)-2-(3-carboxyphenyl)ethyl-1-boronic acid] are 100 to 1000 nM and 100 to 1000 nM.
On to `CC(CO)Oc1cccc(CC(=O)N[C@@H](Cc2cccc(C(=O)O)c2)B(O)O)c1` (stereo partly drawn) [Example 32, (1R)-1-{2-[3-(2-Hydroxy-1-methyl-ethoxy)-phenyl]-acetylamino}-2-(3-carboxyphenyl)ethyl-1-boronic acid], for which the figures for the IC50 at SHV-5 β-lactamase (setting [1]), on CTXM-15 β-lactamase and at P99 AmpC β-lactamase (setting [2]) were < 100 nM, < 100 nM and 100 to 1000 nM, respectively.
For `O=C(Cc1ccc(C(F)(F)F)cc1)N[C@@H](Cc1cccc(C(=O)O)c1)B(O)O` [Example 9, (1R)-1-(4-Trifluoromethylphenylacetylamino)-2-(3-carboxyphenyl)ethyl-1-boronic acid], the IC50 is < 100 nM at SHV-5 β-lactamase (setting [1]), < 100 nM on CTXM-15 β-lactamase and 100 to 1000 nM at P99 AmpC β-lactamase (setting [2]).
`O=C(Cc1cccs1)N[C@@H](Cc1ccc(Cl)c(C(=O)O)c1)B(O)O` [Example 18, (1R)-1-(2-thiophene-2-yl-acetylamino)-2-(3-carboxy-4-chlorophenyl)ethyl-1-boronic acid]: the results for the IC50 on SHV-5 β-lactamase (setting [1]) and at P99 AmpC β-lactamase (setting [2]) were < 100 nM and 100 to 1000 nM, respectively.
Consider `CN1CCC(Oc2cccc(CC(=O)NC(Cc3cccc(C(=O)O)c3)B(O)O)c2)C1` [Example 28, (1R)-1-(2-[3-(1-methyl-pyrrolidin-3-yloxy)-phenyl]-acetylamino)-2-(3-carboxyphenyl)ethyl-1-boronic acid], for which the results for the IC50 at SHV-5 β-lactamase, on CTXM-15 β-lactamase and on P99 AmpC β-lactamase were 100 to 1000 nM, 100 to 1000 nM and < 100 nM, respectively.
With `COc1ccc(CC(=O)N[C@@H](Cc2cccc(C(=O)O)c2)B(O)O)cc1` [Example 25, (1R)-1-(4-Methoxyphenylacetylamino)-2-(3-carboxyphenyl)ethyl-1-boronic acid], the values for the IC50 at SHV-5 β-lactamase (setting [1]), at CTXM-15 β-lactamase and at P99 AmpC β-lactamase (setting [2]) were < 100 nM, < 100 nM and 100 to 1000 nM, respectively.
Regarding `O=C(Cc1ccc2ccccc2c1)N[C@@H](Cc1cccc(C(=O)O)c1)B(O)O` [Example 23, (1R)-1-(2-naphthalen-2-yl-acetylamino)-2-(3-carboxyphenyl)ethyl-1-boronic acid], the IC50 at SHV-5 β-lactamase (setting [1]), on CTXM-15 β-lactamase and on P99 AmpC β-lactamase (setting [2]) was < 100 nM each time.
On to `COc1ccc(C(=O)CCC(=O)N[C@@H](Cc2cccc(C(=O)O)c2)B(O)O)cc1` [Example 38, (1R)-1-(4-(4-Methoxy-phenyl)-4-oxo-butyrylamino)-2-(3-carboxyphenyl)ethyl-1-boronic acid], for which the IC50 on SHV-5 β-lactamase (setting [1]), on CTXM-15 β-lactamase and on P99 AmpC β-lactamase (setting [2]) was 100 to 1000 nM in each case.
For the molecule `Cc1ccc(C(=O)O)cc1C[C@H](NC(=O)Cc1cccs1)B(O)O` [Example 13, (1R)-1-(2-thiophene-2-yl-acetylamino)-2-(5-carboxy-2-methylphenyl)ethyl-1-boronic acid], the values for the IC50 at SHV-5 β-lactamase (setting [1]), at CTXM-15 β-lactamase and on P99 AmpC β-lactamase (setting [2]) were < 100 nM, 100 to 1000 nM and > 1000 nM, respectively.
Regarding `O=C(Cc1ccccc1Br)N[C@@H](Cc1cccc(C(=O)O)c1)B(O)O` [Example 20, (1R)-1-(2-Bromophenylacetylamino)-2-(3-carboxyphenyl)ethyl-1-boronic acid], the IC50 at SHV-5 β-lactamase (setting [1]) and at P99 AmpC β-lactamase (setting [2]) was 100 to 1000 nM throughout.
Turning to `O=C(Cc1ccccc1Cl)N[C@@H](Cc1cccc(C(=O)O)c1)B(O)O` [Example 24, (1R)-1-(2-Chlorophenylacetylamino)-2-(3-carboxyphenyl)ethyl-1-boronic acid], the figures for the IC50 on SHV-5 β-lactamase (setting [1]), at CTXM-15 β-lactamase and on P99 AmpC β-lactamase (setting [2]) were < 100 nM, > 1000 nM and 100 to 1000 nM, respectively.
For `O=C(CCc1cccs1)N[C@@H](Cc1cccc(C(=O)O)c1)B(O)O` [Example 10, (1R)-1-(3-thiophene-2-yl-propionylamino)-2-(3-carboxyphenyl)ethyl-1-boronic acid], in that order: > 1000 nM, 100 to 1000 nM and > 1000 nM.
For `O=C(CCCc1cccs1)N[C@@H](Cc1cccc(C(=O)O)c1)B(O)O` [Example 35, (1R)-1-(4-Thiophen-2-yl-butyrylamino)-2-(3-carboxyphenyl)ethyl-1-boronic acid], in that order: 100 to 1000 nM, 100 to 1000 nM and > 1000 nM.
Turning to `O=C(Cc1cccc(C(=O)O)c1)N[C@@H](Cc1cccc(C(=O)O)c1)B(O)O` [Example 17, (1R)-1-(3-Carboxyphenylacetylamino)-2-(3-carboxyphenyl)ethyl-1-boronic acid], the IC50 at SHV-5 β-lactamase (setting [1]) is 100 to 1000 nM; at P99 AmpC β-lactamase (setting [2]) it was > 1000 nM.
Consider `O=C(Cc1cccc2ccccc12)N[C@@H](Cc1cccc(C(=O)O)c1)B(O)O` [Example 15, (1R)-1-(2-naphthalen-1-yl-acetylamino)-2-(3-carboxyphenyl)ethyl-1-boronic acid], for which the half-inhibitory concentration (IC50) at SHV-5 β-lactamase (setting [1]) and on P99 AmpC β-lactamase (setting [2]) was > 1000 nM in each case.
